The source of these data is US12589156B2, “Benzimidazole and benzimidazolone based protac compounds for the targeted degradation of leucine rich repeat kinase 2 (LRRK2)” (Arvinas Operations, Inc., priority 2023, dated 2026).

Bounds are passed on as bounds.

The test deals with T1, WT LRRK2 (Homo sapiens, UniProt Q5S007).
T1 construct: endogenous in cells; host or cells: HEK293 (endogenous LRRK2 gene knock-in tagged with HiBit; stably expressing CMV-driven firefly luciferase)
Nature of the test: LRRK2 HiBit degradation assay (Nano-Glo Dual Luciferase) in HEK293 cells with HiBit-tagged endogenous LRRK2. Type of test: cell-based. Conditions: for Dmax: maximal degradation. From the text:
Biological Assays Exemplary Assay for Testing LRRK2 Degradation Driven by Exemplary Hetero-Bifunctional Compounds Designed to Target LRRK2
The assay measures the degradation of LRRK2 in cells where the C-terminus (3′) of the endogenous gene has been tagged with a HiBit sequence in HEK293 cells. The cells also express firefly lucisferase, expressed from a Cytomegalovirus promoter and introduced into the HiBit tagged cells and stably expressed. The Nano-Glo® Dual Luciferase Reporter Assay System (Promega™, Madison, WI) was utilized.
Day 1—Preparation of Compound and Assay Plates. Two sets of plates were prepared: a triplicate set for the HiBit assay in white 384-well plates and a triplicate set of plate in black 384-well plates for the Alamar Blue cell viability assay. Briefly, the growth media (DMEM+Glutamax-10% fetal bovine serum-1% Penicillin-Streptomicin) from two T128 flasks was aspirated from the flasks. Cells were washed with Dulbecco's Phosphate Buffered Saline (dPBS) and aspirated. Trypsin (3 mL per flask) was added and the flasks were incubated for 2-3 minutes.
Ten mL of OptiMEM—10% fetal bovine-1% penicillin-streptomycin (hereinafter, “OptiMEM media”) was added to the flask and the cells and transferred to a 50 ml conical tube. A cell count (25 ul of cell into Effendorf vial+25 ul of Trypan Blue Stain) was performed and the cell density adjusted to 15,000 cell/45 μl/well (3.33×10^5/mL) in OptiMEM media.
Forty-five microliters of the cell suspension (15,000 cells) was aliquoted to each well of the white 384-well plate. The plates incubated at room temperature for 10 minutes before being placed in the 37° C.+5% CO2 incubator overnight
Day 2—Compound Treatment. Exemplary compounds were prepared at a 1 mM starting concentration and 1:3 serial dilution for 11 points CRC prepared and stored in the freezer. The Master Compound Plate was thawed overnight at room temperature. DMSO (20 μL) was added into column 24 of the Master Compound Plate for negative control and 20 μL of 300 μM of Compound 4 in column 23 as positive control.
Intermediate Compound Plate with 4% DMSO in OptiMEM Media. DMSO was added to warm OptiMEM media to achieve a 4% DMSO solution (approximately 50 mL/plate). One-hundred microliters of the OptiMEM-4% DMSO was aliquoted to each well of 384-Well Deep Well Microplates.
The Master Compound Plate and the Intermediate Compound Plate were spun down.
One microliter of compound from the Master Compound Plate was transferred into the Intermediate plate (a 1:100 dilution). The diluted mixture was mixed and 5 μL transferred into the assay plate (a 1:10 dilution) for the final starting concentration of 1 μM. The Treated Assay plates were incubated for 24 hours at 37° C.+5% CO2. The Master Compound Plate was sealed and store at room temperature for a second run that was performed within a week.
One set of white assay plates was warmed to room temperature (45 minute).
The One Glo luciferase mixture was prepared. The media from white 384-well assay plates was aspirated. Twenty-five μL of the One Glo luciferase mixture was added to each well of the assay plates. The plates were incubated on the bench (room temperature) for 45 minutes, including 10 minutes of shaking at 700 rpm. The luminescence of each plate was read on a plate reader.
1:100 DLR substrate and 1:100 LgBiT Protein dilution were added to the Promega Stop and Glo buffer and mixed just before addition to assay plates. Twenty-five microliters of Stop and Glo mixture was added to each well. Assay plates incubated for at least 45 minutes, including 10 minutes of shaking at 700 rpm. The luminescence of each plate was read on a plate reader.
Analysis of LRRK2 HiBit Screening assays. As mentioned above, plates were run in triplicate and the assay repeated twice (total of 6 replicate for exemplary compounds). For each treatment, measurements were taken for firefly luciferase for cell number, cell viability (Alamar Blue), and Nanoluc for the LRRK2-HiBit quantification. […]

Where [1] appears, read: HEK293, Table 2, HiBit-tagged LRRK2 in HEK293 cells, 24 hours treatment.
The mark [2] stands for this setting: Table 2, HiBit-tagged LRRK2 in HEK293 cells, 24 hours treatment, starting concentration 1 μM.
[3] abbreviates: HEK293, Table 3, comparison with direct comparators.
Setting [4] is: Table 3, comparison with direct comparators, HiBit-tagged LRRK2 in HEK293 cells, 24 hours treatment.

T1 sequence (Q5S007 whole entry): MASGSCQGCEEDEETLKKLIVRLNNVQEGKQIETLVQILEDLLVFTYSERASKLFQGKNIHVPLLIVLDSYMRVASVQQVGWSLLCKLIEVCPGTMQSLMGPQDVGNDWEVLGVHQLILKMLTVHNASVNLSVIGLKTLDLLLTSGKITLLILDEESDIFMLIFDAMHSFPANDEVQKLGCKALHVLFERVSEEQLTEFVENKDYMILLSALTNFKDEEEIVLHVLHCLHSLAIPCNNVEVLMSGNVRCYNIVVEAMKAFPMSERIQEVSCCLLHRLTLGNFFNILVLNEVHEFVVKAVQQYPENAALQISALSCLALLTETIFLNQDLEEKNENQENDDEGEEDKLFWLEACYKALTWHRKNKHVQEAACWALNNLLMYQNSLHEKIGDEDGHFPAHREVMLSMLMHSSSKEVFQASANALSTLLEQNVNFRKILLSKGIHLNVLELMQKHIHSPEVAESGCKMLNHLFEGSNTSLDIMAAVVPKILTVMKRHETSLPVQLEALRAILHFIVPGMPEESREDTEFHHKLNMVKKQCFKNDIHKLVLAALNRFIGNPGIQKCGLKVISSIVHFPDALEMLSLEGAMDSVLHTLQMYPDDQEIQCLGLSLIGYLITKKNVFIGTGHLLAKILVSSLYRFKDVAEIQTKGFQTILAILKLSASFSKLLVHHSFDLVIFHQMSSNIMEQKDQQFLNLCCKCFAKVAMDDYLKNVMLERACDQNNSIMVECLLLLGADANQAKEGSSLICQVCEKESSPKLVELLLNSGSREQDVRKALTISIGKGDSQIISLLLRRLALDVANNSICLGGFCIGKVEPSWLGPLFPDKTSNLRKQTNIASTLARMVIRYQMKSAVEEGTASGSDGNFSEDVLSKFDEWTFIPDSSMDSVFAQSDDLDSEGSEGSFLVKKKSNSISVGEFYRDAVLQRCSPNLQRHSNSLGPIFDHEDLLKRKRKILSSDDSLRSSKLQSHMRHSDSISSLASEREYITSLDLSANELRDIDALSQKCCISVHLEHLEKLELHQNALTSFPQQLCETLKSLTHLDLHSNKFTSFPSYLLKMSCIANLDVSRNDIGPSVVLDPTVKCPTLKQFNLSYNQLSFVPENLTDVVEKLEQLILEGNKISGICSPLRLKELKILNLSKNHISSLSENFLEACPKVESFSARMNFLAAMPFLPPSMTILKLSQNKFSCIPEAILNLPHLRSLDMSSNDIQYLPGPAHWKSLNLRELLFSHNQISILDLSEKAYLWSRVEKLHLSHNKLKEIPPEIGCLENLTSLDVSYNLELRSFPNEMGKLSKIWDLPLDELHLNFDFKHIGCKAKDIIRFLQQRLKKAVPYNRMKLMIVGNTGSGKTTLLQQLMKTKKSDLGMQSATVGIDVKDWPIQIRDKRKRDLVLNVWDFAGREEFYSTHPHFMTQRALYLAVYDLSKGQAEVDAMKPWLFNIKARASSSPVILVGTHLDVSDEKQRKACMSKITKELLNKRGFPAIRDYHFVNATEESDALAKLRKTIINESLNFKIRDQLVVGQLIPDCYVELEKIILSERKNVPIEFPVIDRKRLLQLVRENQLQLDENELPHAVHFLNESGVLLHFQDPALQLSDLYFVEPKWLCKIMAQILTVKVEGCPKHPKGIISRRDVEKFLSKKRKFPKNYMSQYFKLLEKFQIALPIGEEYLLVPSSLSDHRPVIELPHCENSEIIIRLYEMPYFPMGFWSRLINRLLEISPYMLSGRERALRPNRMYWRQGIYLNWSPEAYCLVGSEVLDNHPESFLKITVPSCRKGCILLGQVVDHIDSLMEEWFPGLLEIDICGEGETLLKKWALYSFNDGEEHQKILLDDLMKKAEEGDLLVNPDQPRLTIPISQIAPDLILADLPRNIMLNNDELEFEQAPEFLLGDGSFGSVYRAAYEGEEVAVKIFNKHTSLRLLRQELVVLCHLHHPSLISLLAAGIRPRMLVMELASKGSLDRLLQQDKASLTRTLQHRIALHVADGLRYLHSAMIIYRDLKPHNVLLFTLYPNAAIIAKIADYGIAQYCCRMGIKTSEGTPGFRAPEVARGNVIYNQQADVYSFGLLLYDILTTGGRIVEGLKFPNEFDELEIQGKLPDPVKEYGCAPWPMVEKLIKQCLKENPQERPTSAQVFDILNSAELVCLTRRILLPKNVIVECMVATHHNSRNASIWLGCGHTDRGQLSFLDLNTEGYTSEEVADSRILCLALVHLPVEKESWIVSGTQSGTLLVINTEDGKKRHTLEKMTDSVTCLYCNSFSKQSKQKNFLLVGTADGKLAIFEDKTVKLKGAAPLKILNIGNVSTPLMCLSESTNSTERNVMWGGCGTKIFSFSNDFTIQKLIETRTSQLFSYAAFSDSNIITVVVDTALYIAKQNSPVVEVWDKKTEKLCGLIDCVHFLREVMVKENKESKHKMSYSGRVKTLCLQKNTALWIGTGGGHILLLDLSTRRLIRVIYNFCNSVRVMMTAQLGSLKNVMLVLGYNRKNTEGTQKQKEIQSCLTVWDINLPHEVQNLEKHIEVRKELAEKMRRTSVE

Under setting [1], `Cn1c(=O)n(C2CCC(=O)NC2=O)c2ccc(N3CCC(O[C@H]4CC[C@H](CN5CCN(c6cc(-c7n[nH]c8ccc(C9(C#N)CC9)cc78)ncn6)CC5)CC4)CC3)cc21` (single isomer, unassigned) [Compound 63, rel-1-{3-[6-(4-{[(1r,4r)-4-({1-[1-(2,6-dioxopiperidin-3-yl)-3-methyl-2-oxo-2,3-dihydro-1H-1,3-benzodiazol-5-yl]piperidin-4-yl}oxy)cyclohexyl]methyl}piperazin-1-yl)pyrimidin-4-yl]-1H-indazol-5-yl}cyclopropane-1-carbonitrile] had a Dmax of 56%. Under setting [2], the DC50 turned out to be 0.13 nM.

On to `Cn1c(=O)n(C2CCC(=O)NC2=O)c2ccc(N3CCC(O[C@H]4CC[C@H](CN5CCN(c6cc(-c7n[nH]c8cnc(OC(C)(C)C)cc78)ncn6)CC5)CC4)CC3)cc21` (single isomer, unassigned) [Compound 19, rel-3-[3-methyl-2-oxo-5-(4-{[(1r,4r)-4-[(4-{6-[5-(tert-butoxy)-1H-pyrazolo[3,4-c]pyridin-3-yl]pyrimidin-4-yl}piperazin-1-yl)methyl]cyclohexyl]oxy}piperidin-1-yl)-2,3-dihydro-1H-1,3-benzodiazol-1-yl]piperidine-2,6-dione], for which, under setting [1], the Dmax amounted to 76%. The molecule further had a DC50 under setting [2] of 28 nM.

Under setting [1], `Cn1c(=O)n(C2CCC(=O)NC2=O)c2ccc(N3CCC(O[C@H]4CC[C@H](CN5CCN(c6cc(-c7n[nH]c8cnc(C9(C#N)CC9)cc78)ncn6)CC5)CC4)CC3)cc21` (single isomer, unassigned) [Compound 23, rel-1-{3-[6-(4-{[(1r,4r)-4-({1-[1-(2,6-dioxopiperidin-3-yl)-3-methyl-2-oxo-2,3-dihydro-1H-1,3-benzodiazol-5-yl]piperidin-4-yl}oxy)cyclohexyl]methyl}piperazin-1-yl)pyrimidin-4-yl]-1H-pyrazolo[3,4-c]pyridin-5-yl}cyclopropane-1-carbonitrile] returned a Dmax of 45%. This molecule also showed a DC50 under setting [2] of 0.56 nM.

The molecule `Cn1c(=O)n(C2CCC(=O)NC2=O)c2ccc(N3CCC(O[C@H]4CC[C@H](CN5CCN(c6cc(-c7n[nH]c8cnc(C9(C#N)CC%10(CC%10)C9)cc78)ncn6)CC5)CC4)CC3)cc21` (single isomer, unassigned) [Compound 24, rel-5-{3-[6-(4-{[(1r,4r)-4-({1-[1-(2,6-dioxopiperidin-3-yl)-3-methyl-2-oxo-2,3-dihydro-1H-1,3-benzodiazol-5-yl]piperidin-4-yl}oxy)cyclohexyl]methyl}piperazin-1-yl)pyrimidin-4-yl]-1H-pyrazolo[3,4-c]pyridin-5-yl}spiro[2.3]hexane-5-carbonitrile] showed a Dmax under setting [1] of 49%. This molecule also registered a DC50 under setting [2] of 0.46 nM.

As for `Cn1c(=O)n(C2CCC(=O)NC2=O)c2ccc(N3CCC(O[C@H]4C[C@H](COC5CCN(c6cc(-c7n[nH]c8cnc(OC9(C)CC9)cc78)ncn6)CC5)C4)CC3)cc21` (single isomer, unassigned) [Compound 34, rel-3-(3-methyl-2-oxo-5-{4-[(1r,3r)-3-{[(1-{6-[5-(1-methylcyclopropoxy)-1H-pyrazolo[3,4-c]pyridin-3-yl]pyrimidin-4-yl}piperidin-4-yl)oxy]methyl}cyclobutoxy]piperidin-1-yl}-2,3-dihydro-1H-1,3-benzodiazol-1-yl)piperidine-2,6-dione], under setting [1], the Dmax stood at 57%. Moreover, the DC50 under setting [2] came out at 0.42 nM.

Under setting [2], `COc1cc2c(-c3cc(N4CCN(C[C@H]5CC[C@H](OC6CCN(c7ccc8c(c7)n(C)c(=O)n8C7CCC(=O)NC7=O)CC6)CC5)CC4)ncn3)n[nH]c2cn1` (single isomer, unassigned) [Compound 21, rel-3-[3-methyl-2-oxo-5-(4-{[(1r,4r)-4-{[4-(6-{5-methoxy-1H-pyrazolo[3,4-c]pyridin-3-yl}pyrimidin-4-yl)piperazin-1-yl]methyl}cyclohexyl]oxy}piperidin-1-yl)-2,3-dihydro-1H-1,3-benzodiazol-1-yl]piperidine-2,6-dione] registered a DC50 of no less than 1000 nM.

As to `Cn1c(=O)n(C2CCC(=O)NC2=O)c2ccc(N3CCC(O[C@H]4CC[C@H](CN5CCN(c6cc(-c7n[nH]c8cnc(OC9(C)CC9)cc78)ncn6)CC5)CC4)CC3)cc21` (stereo partly shown) [Compound 1, 3-[3-methyl-2-oxo-5-(4-{[(1r,4r)-4-[(4-{6-[5-(1-methylcyclopropoxy)-1H-pyrazolo[3,4-c]pyridin-3-yl]pyrimidin-4-yl}piperazin-1-yl)methyl]cyclohexyl]oxy}piperidin-1-yl)-2,3-dihydro-1H-1,3-benzodiazol-1-yl]piperidine-2,6-dione], the Dmax by setting is: under setting [1], 53%; under setting [3], 53%. For the same molecule, the DC50 was found to be 0.14 nM under setting [2] and 0.14 nM under setting [4]. Moreover, the “increase in WT LRRK2 DC50 activity when compared to Comparator Example” value (versus comparator bearing a 3-(4-methoxy-1-oxoisoindolin-2-yl)piperidine-2,6-dione group) is reported as greater than 40 fold.

On to `CC1(Oc2ccc3[nH]nc(-c4cc(N5CCN(C[C@H]6CC[C@H](OC7CCN(c8cc9ncn(C%10CCC(=O)NC%10=O)c9cc8F)CC7)CC6)CC5)ncn4)c3c2)CC1` (stereo partly drawn) [Compound 44, rel-3-[6-fluoro-5-(4-{[(1r,4r)-4-[(4-{6-[5-(1-methylcyclopropoxy)-1H-indazol-3-yl]pyrimidin-4-yl}piperazin-1-yl)methyl]cyclohexyl]oxy}piperidin-1-yl)-1H-1,3-benzodiazol-1-yl]piperidine-2,6-dione], for which the Dmax was found to be 50% under setting [1] and 50% under setting [3]. The DC50 by setting is: under setting [2], 6.3 nM; under setting [4], 6.3 nM.

With `Cn1c(=O)n(C2CCC(=O)NC2=O)c2cccc(N3CCC(CN4CCN(CC5CCN(c6cc(-c7n[nH]c8cnc(OC9(C)CC9)cc78)ncn6)CC5)C(C)(C)C4)CC3)c21` (stereo not shown) [Compound 47, 3-{4-[4-({3,3-dimethyl-4-[(1-{6-[5-(1-methylcyclopropoxy)-1H-pyrazolo[3,4-c]pyridin-3-yl]pyrimidin-4-yl}piperidin-4-yl)methyl]piperazin-1-yl}methyl)piperidin-1-yl]-3-methyl-2-oxo-2,3-dihydro-1H-1,3-benzodiazol-1-yl}piperidine-2,6-dione], the Dmax under setting [1] turned out to be 100%. The molecule further gave a DC50 under setting [2] of 24 nM.

As for `Cn1c(=O)n(C2CCC(=O)NC2=O)c2cc(N3CCC(CN4CCN(CC5CCN(c6cc(-c7n[nH]c8ccc(OC9(C)CC9)cc78)ncn6)CC5)C(C)(C)C4)CC3)ccc21` (stereo not shown) [Compound 17, 3-{6-[4-({3,3-dimethyl-4-[(1-{6-[5-(1-methylcyclopropoxy)-1H-indazol-3-yl]pyrimidin-4-yl}piperidin-4-yl)methyl]piperazin-1-yl}methyl)piperidin-1-yl]-3-methyl-2-oxo-2,3-dihydro-1H-1,3-benzodiazol-1-yl}piperidine-2,6-dione], the DC50 under setting [2] is no less than 1000 nM.

Under setting [1], `Cn1c(=O)n(C2CCC(=O)NC2=O)c2ccc(N3CCC(O[C@H]4CC[C@@H](CN5CCN(c6cc(-c7n[nH]c8cnc(OC9(C)CC9)cc78)ncn6)CC5)CC4)CC3)cc21` (stereo partly shown) [Compound 68, 3-[3-methyl-2-oxo-5-(4-{[(1s,4s)-4-[(4-{6-[5-(1-methylcyclopropoxy)-1H-pyrazolo[3,4-c]pyridin-3-yl]pyrimidin-4-yl}piperazin-1-yl)methyl]cyclohexyl]oxy}piperidin-1-yl)-2,3-dihydro-1H-1,3-benzodiazol-1-yl]piperidine-2,6-dione] displayed a Dmax of 35%. The same molecule showed a DC50 under setting [2] of 1.2 nM.
